Marks after values point to notes of the source that are not given here.
Legend:
P. aeruginosa = assay: Checkerboard assay (FIC index); type: cell-based, Pseudomonas aeruginosa; settings: antibiotic combined with PEP35
Description: (§1) The checkerboard assays were carried out as described by Eliopoulos and Moellering (Chapter 9) in Antibiotic in Laboratory Medicine, Lorian Ed. 1996 as well as Bonapace et al. Diagnostic Microbiology and Infectious Diseases 2002; 44:363-366 and Bonapace et al. Diagnostic Microbiology and Infectious Diseases 2000; 38:43-50. In brief, checkerboard assays were performed in 96 well microtitre trays using an 8-by-8 well configuration. […] 96-well custom designed microtitre plates contained 100 ul/well of cation adjusted Mueller-Hinton broth (eg. for Enterobacteriaceae) with or without lysed horse blood (2-5% V/V) [eg. for S. pneumoniae] and were inoculated to achieve a final concentration of approximately 5×10^5 CFU/ml and incubated in ambient air for 24 hours prior to reading. Colony counts were performed periodically to confirm inocula. Quality control was performed every two weeks using a variety of ATCC QC organisms including; S. pneumoniae 49619, S. aureus 29213, E. faecalis 29212, E. coli 25922 and P. aeruginosa 27853. For all antimicrobials as well as PEP35, CLSI criteria was used.
(§2) The fractional inhibitory concentration index (FIC index) was used to interpret synergy, antagonism or additivity/indifference. FIC index=FIC of drug A+FIC of drug B where:
(§3) The FIC of drug A and drug B is calculated as follows, FIC drug A=MIC of drug A in combination/MIC of drug A alone and FIC of drug B=MIC of drug B in combination/MIC of drug B alone. Synergy is defined as FIC index ≦0.5, additivity/indifference FIC >0.5-4 and antagonism FIC index >4.
(§4) Antimicrobials used included PEP35, cefazolin, ceftriaxone, vancomycin, linezolid, tigecycline and daptomycin versus Gram-positive cocci and PEP35, gentamicin, levofloxacin, piperacillin/tazobactam, meropenem and colistin (Polymyxin E) versus Gram-negative bacilli. These agents were obtained as laboratory grade powders from their respective manufacturers. Stock solutions were prepared and dilutions made as described by the Clinical Laboratory Standards Institute (2005 CLSI).
(§5) Organisms included Gram-positive cocci (2 strains of each): Methicillin-susceptible Staphylococcus aureus (MSSA), community-associated (CA) and healthcare-associated (HA) methicillin-resistant Staphylococcus aureus (MRSA), vancomycin-intermediate Staphylococcus aureus (VISA), vancomycin-resistant Staphylococcus aureus (VRSA), methicillin-resistant Staphylococcus epidermidis (MRSE), Streptococcus pyogenes, Streptococcus agalactiae, Streptococcus pneumoniae, Enterococcus faecalis, Enterococcus faecium and vancomycin-resistant enterococcus (VRE). Gram-negative bacilli tested (2 strains of each) included: E. coli, Pseudomonas aeruginosa, Klebsiella pneumoniae, K. oxytoca, Enterobacter cloacae, P. mirabilis and Stenotrophomonas maltophilia. MIC testing, following two subcultures from frozen stock were determined by the CLSI 2005 approved broth microdilution method.

P. mirabilis [1] = assay: Checkerboard assay (FIC index); type: cell-based, Proteus mirabilis; settings: antibiotic combined with PEP35
Description: as §1, §2, §3, §4, §5

[2] = system: MRSA, VISA, VRSA and E. coli; assay: Checkerboard assay, panel statement; type: cell-based
Description: Checkerboard assays were carried out as described by Bonapace et al.
as §1, with “Diagnostic” for “The checkerboard assays were carried out as described by Eliopoulos and Moellering (Chapter 9) in Antibiotic in Laboratory Medicine, Lorian Ed. 1996 as well as Bonapace et al. Diagnostic”, “2002; 44:363-366.” for “2002; 44:363-366 and Bonapace et al. Diagnostic Microbiology and Infectious Diseases 2000; 38:43-50.”, “27853. […] All peptides were assessed for synergy with β-lactams and vancomycin.” for “27853.”, “as the peptides,” for “as PEP35,”, “criteria were” for “criteria was”
as §2
The FIC of drug A and drug B was calculated as follows, FIC drug A=MIC of drug A in combination/MIC of drug A alone and FIC of drug B=MIC of drug B in combination/MIC of drug B alone. Synergy was defined as FIC index ≦0.5, additivity/indifference defined as a FIC between 0.5 and 4 and antagonism defined as an FIC index >4.
The fractional inhibitory concentration index (FIC index) was used to interpret synergy, antagonism or additivity/indifference. FIC index=FIC of drug A+FIC of drug B where the FIC of drug A and drug B was calculated as follows, FIC drug A=MIC of drug A in combination/MIC of drug A alone and FIC of drug B=MIC of drug B in combination/MIC of drug B alone. Synergy was defined as FIC index ≦0.5, additivity/indifference defined as an FIC of between 0.5 and 4 and antagonism defined as an FIC index >4.

[3] = system: MRSA, VISA, VRSA and E. coli; assay: MIC, agent alone, panel statement; type: cell-based; settings: CA-MRSA and HA-MRSA (checkerboard strains of Table 11)
Description: VISA (strains 92, 95 and 96), VRSA (strains 105 and 106) and E. coli (strain 69717) isolates were also tested. One MSSA was used as a control. All MICs were assessed using CLSI guidelines. Also assessed was the activity of cefazolin, ceftriazone, meropenem, and a piperacillin/tazobactam combination antibiotic. Minimum inhibitory concentration (MIC) is the lowest concentration of an antimicrobial that will inhibit the visible growth of a microorganism after incubation.
Antimicrobial Susceptibility Testing: A custom designed panel of antimicrobials was created. The panel included: PEP35, penicillin, piperacillin/tazobactam, cefazolin, ceftriaxone, meropenem, clarithromycin, clindamycin, gentamicin, amikacin, vancomycin, ciprofloxacin, levofloxacin, moxifloxacin, linezolid, trimethoprim/sulfamethoxazole and doxycycline. These agents were obtained as laboratory grade powders from their respective manufacturers. Stock solutions were prepared and dilutions made as described by the Clinical Laboratory Standards Institute (2005 CLSI). Following two subcultures from frozen stock the MICs of the antimicrobial agents for the isolates were determined by the CLSI 2005 approved broth macrodilution method. Briefly, test tubes containing doubling antibiotic dilutions (2 ml per tube) of cation adjusted Mueller-Hinton broth (eg. for Enterobacteriaceae) with or without lysed horse blood (2-5% V/V) [eg. for S. pneumoniae] were inoculated to achieve a final concentration of approximately 5×10^5 CFU/ml and incubated in ambient air for 24 hours prior to reading. Colony counts were performed periodically to confirm inocula. Quality control was performed every two weeks using a variety of ATCC QC organisms including; S. aureus 29213, E. faecalis 29212, E. coli 25922 and P. aeruginosa 27853. For all antimicrobials as well as PEP35, CLSI criteria were used.

P. mirabilis [4] = assay: MIC, agent alone (broth microdilution); type: cell-based, Proteus mirabilis; settings: footnote to Table 12; P. mirabilis 80267 and 81569
Source text: as §5

[5] = with cefazolin and ceftriaxone, versus CA-MRSA, HA-MRSA, VISA and VRSA
[6] = with meropenem versus CA-MRSA, HA-MRSA, and VISA

Compound	Avg ΣFIC (range) (P. aeruginosa; P. aeruginosa 70849)	Avg ΣFIC (range) (P. aeruginosa; P. aeruginosa 71841)	Avg ΣFIC (range) (P. mirabilis [1]; P. mirabilis 80267)	Avg ΣFIC (range) (P. mirabilis [1]; P. mirabilis 81569)	synergy (in words) [2, 5]	synergy (in words) [2, 6]	MIC alone, range [3] [µg/mL]	MIC (P. mirabilis [4])
C[C@@H](O)[C@H]1C(=O)N2C(C(=O)O)=C(S[C@@H]3CN[C@H](C(=O)N(C)C)C3)[C@H](C)[C@H]12 [Meropenem]	1.21 (1.03-1.5)	1.10 (1.0-1.25)	>1*	>1*				
KKKKKLQLQLNLIKKKVQVSVVVVRRH (Reordered human peptide sequence) [Scrambled PEP35]					synergistic effect	synergistic effect		
LKQKIKHVVKLKVVVKLRSQLVKRKQN (listed as Mus sp.) [PEP35]					synergistic effect	synergistic effect	512 to 1024	*PEP35 MIC > 4096
piperacillin/tazobactam	0.92 (0.62-1.12)	0.88 (0.56-1.12)	>0.5*	>0.5*				

Source: patent US9751919B2, “Antimicrobial compositions comprising a hyaluronic acid binding peptide and a β-lactam antibiotic” (priority 2012, dated 2017)
